In patent publication EP1073451B1, “D[…] TREATING ISCHEMIA” (University of Kentucky Research Foundation, priority 1998, dated 2002):

Tested on: focal middle cerebral arterial occlusion (MCAO) ischemia
Conditions: for infarct volume reduced compared to control animals: after 24 h of reperfusion; for infarct volume reduced compared to control animals / MABP, pO2, pCO2, pH or rectal temperature versus control animals: 4 mg/kg i.p. x4 prior to 1 h MCAO; for neurological deficits: behavior ranking 0 (normal) to 3 (severe), 4 mg/kg i.p. at 6.5 h, 4.5 h, 2.5 h and 0.5 h prior to ischemic injury, 1 h MCAO, mean ± SEM; for neurological deficits / infarct volume: n=8; for infarct volume: 4 mg/kg; for MABP, pO2, pCO2, pH or rectal temperature versus control animals: post ischemia

Compound | infarct volume reduced compared to control animals | neurological deficits | infarct volume | MABP, pO2, pCO2, pH or rectal temperature versus control animals
CC(C)C[C@@H](NC(=O)[C@H](Cc1ccccc1)NC(=O)CNC(=O)[C@@H](C)NC(=O)[C@@H](N)Cc1ccc(O)cc1)C(=O)O [DADLE, Tyr-D-Ala-Gly-Phe-D-Leu-enkephalin] | 12% | 1.73 ± 0.20 | 67 ± 9 mm^2 | no significant differences
Tyr-Ala-Phe-Asp-Val-Val-Gly-NH2 [deltorphin] | 42% | 0.44 ± 0.11 | 45 ± 10 mm^2 | no significant differences
